Data as given in publication PMC3073417 (The Journal of neuroscience : the official journal of the …, 2011).

Target: hTRPA1 (Homo sapiens, UniProt O75762)
Assay: whole-cell patch clamp of HEK293 cells expressing hTRPA1
Type: cell-based

hTRPA1, sequence (O75762 whole entry): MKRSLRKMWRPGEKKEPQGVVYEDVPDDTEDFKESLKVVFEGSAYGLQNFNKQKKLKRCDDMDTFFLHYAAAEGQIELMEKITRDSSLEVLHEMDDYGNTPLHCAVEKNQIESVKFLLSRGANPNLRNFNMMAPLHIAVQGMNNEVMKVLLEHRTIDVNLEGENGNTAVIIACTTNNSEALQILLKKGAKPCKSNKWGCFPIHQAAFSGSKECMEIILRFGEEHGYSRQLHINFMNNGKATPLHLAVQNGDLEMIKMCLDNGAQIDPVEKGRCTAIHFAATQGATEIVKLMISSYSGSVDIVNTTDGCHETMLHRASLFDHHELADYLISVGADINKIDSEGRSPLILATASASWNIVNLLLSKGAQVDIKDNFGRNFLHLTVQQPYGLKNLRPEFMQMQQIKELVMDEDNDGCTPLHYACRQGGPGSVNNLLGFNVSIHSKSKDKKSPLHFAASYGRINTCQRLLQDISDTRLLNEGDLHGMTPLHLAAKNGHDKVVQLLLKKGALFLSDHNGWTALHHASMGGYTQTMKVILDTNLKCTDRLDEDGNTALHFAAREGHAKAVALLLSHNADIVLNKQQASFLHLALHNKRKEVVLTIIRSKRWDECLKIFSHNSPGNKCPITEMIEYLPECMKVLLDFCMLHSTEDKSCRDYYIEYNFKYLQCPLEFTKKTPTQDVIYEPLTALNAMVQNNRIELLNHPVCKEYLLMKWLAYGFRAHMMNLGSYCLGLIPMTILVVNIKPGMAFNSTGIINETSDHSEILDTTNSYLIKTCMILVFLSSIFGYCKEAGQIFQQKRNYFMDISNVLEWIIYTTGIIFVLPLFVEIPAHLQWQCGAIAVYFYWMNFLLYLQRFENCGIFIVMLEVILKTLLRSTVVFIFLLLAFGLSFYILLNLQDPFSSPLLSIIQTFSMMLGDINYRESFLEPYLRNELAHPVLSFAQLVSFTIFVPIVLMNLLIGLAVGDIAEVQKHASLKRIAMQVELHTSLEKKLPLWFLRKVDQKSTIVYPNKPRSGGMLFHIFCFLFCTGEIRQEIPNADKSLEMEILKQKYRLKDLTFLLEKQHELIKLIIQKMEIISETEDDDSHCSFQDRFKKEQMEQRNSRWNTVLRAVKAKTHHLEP

EC50: 2800 nM
Structure (SMILES): C/C=C(/C=O)[C@@H](CC=O)CC(=O)OCCc1ccc(O)cc1 [OC, (−)-oleocanthal]
